1 molecule from PMC2967836, “Immobilization and Characterization of a Recombinant Thermostable Lipase (Pf2001) from Pyrococcus furiosus on Supports with Different Degrees of Hydrophobicity” (Enzyme Research, 2010) can be followed below.

This test concerns the target T1, Pf2001Δ60 (recombinant thermostable lipase Pf2001) (Pyrococcus furiosus, UniProt Q8TZJ1).
T1 construct: expressed in E. coli BL21 (DE3) pLysS; crude extract supernatant
The experiment in a line: fluorescence release of 4-methylumbelliferone (ex […] nm, em […] nm). Type of test: biochemical. To be noted: crude extract of E. coli expressing the enzyme; pH 7.0, 50 mM sodium phosphate, 0.1% gum arabic, 70 °C; soluble enzyme (also measured immobilised).

T1 sequence (Q8TZJ1 entry or part of it, stated change not applied): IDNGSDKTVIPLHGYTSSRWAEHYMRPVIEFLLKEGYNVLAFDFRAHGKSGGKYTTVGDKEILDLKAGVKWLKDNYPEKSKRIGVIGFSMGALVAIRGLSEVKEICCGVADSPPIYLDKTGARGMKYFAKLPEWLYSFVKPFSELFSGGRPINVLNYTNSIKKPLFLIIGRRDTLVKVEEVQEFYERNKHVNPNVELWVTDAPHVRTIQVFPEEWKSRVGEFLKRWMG

As for `CCCCCCC(=O)Oc1ccc2c(C)cc(=O)oc2c1` [4-Methylumbelliferyl-heptanoate], the “fluorescence release of 4-methylumbelliferone (ex 323 nm, em 448 nm)” value is given as “Enzyme activity was measured according to the method described by Prim et al”.
